Consider eleven compounds from patent US20250313572A1, “MACROCYCLIC MCL-1 INHIBITORS AND METHODS OF USE” (AbbVie Inc., priority 2017, published 2025).

For one assay, the target named is GST-MCL-1 (Homo sapiens, UniProt Q07820). Briefly: TR-FRET MCL-1 binding assay (competition with probe F-Bak). To be noted: for Ki: MCL-1 Binding Ki (nM, 10% HS), in the presence of 10% HS (human serum); for pKi: without HS, read-out: MCL-1 Binding Ki. As for the experimental part: Tb-anti-GST antibody was purchased from Invitrogen (Catalog No. PV4216).
Sequence of GST-MCL-1 (Q07820 whole entry): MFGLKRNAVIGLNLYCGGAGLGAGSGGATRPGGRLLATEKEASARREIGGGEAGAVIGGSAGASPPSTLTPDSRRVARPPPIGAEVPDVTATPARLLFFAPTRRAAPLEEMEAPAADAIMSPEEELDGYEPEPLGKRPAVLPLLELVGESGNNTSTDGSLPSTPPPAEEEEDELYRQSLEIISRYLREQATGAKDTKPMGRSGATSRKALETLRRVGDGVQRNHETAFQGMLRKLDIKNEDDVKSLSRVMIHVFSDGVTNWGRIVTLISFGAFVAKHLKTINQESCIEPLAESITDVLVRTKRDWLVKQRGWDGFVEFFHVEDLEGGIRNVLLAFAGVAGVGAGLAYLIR
For the assay, an acoustic dispenser was used to prepare dilution series from 10 mM test compounds in 100% DMSO and directly transfer 160 nL into low volume 384-well assay plates. 8 μL of a protein/probe/antibody mix was then added to each well resulting in final concentrations listed below: • Test compound: 11 three-fold dilutions beginning at 25 μM
The samples were then mixed on a shaker for 1 minute and incubated for an additional 2 hours at room temperature. For each assay plate, a probe/antibody and protein/antibody/probe mixture were included as a negative and a positive control, respectively. Fluorescence was measured on the Envision (Perkin Elmer) using a 340/35 nm excitation filter and 520/525 (F-Bak) and 495/510 nm (Tb-labeled anti-his antibody) emission filters. […] The TR-FRET assay can be performed in the presence of varying concentrations of human serum (HS) or fetal bovine serum (FBS). Compounds were tested both without HS and in the presence of 10% HS.

Assay [1] concerns AMO-1 human multiple myeloma tumor cell line. Briefly: AMO-1 cell viability assay (CellTiter-Glo, 24 hours). The format is cell-based. To be noted: Homo sapiens, AMO1, 24 h, read-out: AMO-1 Viability IC50 (μM, 10% FBS), 10% FBS, 24 hours of compound treatment.
Assay [2] deals with NCI-H929 human multiple myeloma tumor cell line. Briefly: NCI-H929 cell viability assay (CellTiter-Glo, 24 hours). The note with it: Homo sapiens, NCI-H929, 24 h, read-out: H929 Viability IC50 (μM, 10% FBS), 10% FBS, 24 hours of compound treatment. In kind it is cell-based.

Molecules are shown by their SMILES. pKi: −log10 of the molar value. Where two headings read alike, the source gives them in different places.

`COCCOCCOCCOc1ccccc1-c1nccc(COc2ccc3cc2C[C@@H](C(=O)O)Oc2ncnc4sc(-c5ccc(F)cc5)c(c24)-c2ccc(c(Cl)c2C)O[C@H](CN2CCN(C)CC2)CO3)n1` (atropisomer, axis not shown) [Example 2, (7S,16R,21S)-19-chloro-1-(4-fluorophenyl)-10-{[2-(2-{2-[2-(2-methoxyethoxy)ethoxy]ethoxy}phenyl)pyrimidin-4-yl]methoxy}-20-methyl-16-[(4-methylpiperazin-1-yl)methyl]-7,8,15,16-tetrahydro-18,21-etheno-9,13-(metheno)-6,14,17-trioxa-2-thia-3,5-diazacyclononadeca[1,2,3-cd]indene-7-carboxylic Acid]: on GST-MCL-1, the Ki was 76 nM and the pKi was 8.39. Also, the IC50 in assay [1] is 0.21 µM. Also, the IC50 in assay [2] turned out to be 0.276 µM.
Taken in the same sequence, the figures for `COCCOCCOCCOc1ccc(-c2nccc(COc3ccc4cc3C[C@H](C(=O)O)Oc3ncnc5sc(-c6ccc(F)cc6)c(c35)-c3ccc(c(Cl)c3C)O[C@H](CN3CCN(C)CC3)CO4)n2)cc1` (atropisomer, axis not shown) [Example 13, (7R,16R,21S)-19-chloro-1-(4-fluorophenyl)-10-{[2-(4-{2-[2-(2-methoxyethoxy)ethoxy]ethoxy}phenyl)pyrimidin-4-yl]methoxy}-20-methyl-16-[(4-methylpiperazin-1-yl)methyl]-7,8,15,16-tetrahydro-18,21-etheno-13,9-(metheno)-6,14,17-trioxa-2-thia-3,5-diazacyclononadeca[1,2,3-cd]indene-7-carboxylic Acid] were 0.251 nM, 10.27, 0.00046 µM and 0.001 µM.
In the case of `Cc1c2ccc(c1Cl)O[C@H](CN1CCN(C)CC1)COc1ccc(OCc3ccnc(-c4ccc(CCC(=O)O)cc4)n3)c(c1)C[C@H](C(=O)O)Oc1ncnc3sc(-c4ccc(F)cc4)c-2c13` (atropisomer, axis not shown) [Example 17, (7R,16R,21S)-10-({2-[4-(2-carboxyethyl)phenyl]pyrimidin-4-yl}methoxy)-19-chloro-1-(4-fluorophenyl)-20-methyl-16-[(4-methylpiperazin-1-yl)methyl]-7,8,15,16-tetrahydro-18,21-etheno-13,9-(metheno)-6,14,17-trioxa-2-thia-3,5-diazacyclononadeca[1,2,3-cd]indene-7-carboxylic Acid], the inhibition constant (Ki) on GST-MCL-1 amounted to 0.246 nM. In addition, the pKi at GST-MCL-1 was 10.82. Besides, the IC50 stood at 0.0155 µM in assay [1] and 0.0298 µM in assay [2].
For `Cc1c2ccc(c1Cl)O[C@H](CN1CCN(C)CC1)COc1ccc(OCc3ccnc(-c4ccc(OC[C@H](O)CO)cc4)n3)c(c1)C[C@H](C(=O)O)Oc1ncnc3sc(-c4ccc(F)cc4)c-2c13` (atropisomer, axis not shown) [Example 18, (7R,16R,21S)-19-chloro-10-[(2-{4-[(2R)-2,3-dihydroxypropoxy]phenyl}pyrimidin-4-yl)methoxy]-1-(4-fluorophenyl)-20-methyl-16-[(4-methylpiperazin-1-yl)methyl]-7,8,15,16-tetrahydro-18,21-etheno-13,9-(metheno)-6,14,17-trioxa-2-thia-3,5-diazacyclononadeca[1,2,3-cd]indene-7-carboxylic Acid] the same measures were 0.269 nM, 10.96, 0.00295 µM and 0.00531 µM.
`COCCOCCOCCOCCOCCOC[C@H]1CN(c2nccc(COc3ccc4cc3C[C@H](C(=O)O)Oc3ncnc5sc(-c6ccc(F)cc6)c(c35)-c3c(C)c(Cl)c(c(Cl)c3C)O[C@H](CN3CCN(C)CC3)CO4)n2)CCO1` [Example 83, (7R,16R)-19,23-dichloro-1-(4-fluorophenyl)-10-({2-[(2R)-2-(2,5,8,11,14,17-hexaoxaoctadecan-1-yl)morpholin-4-yl]pyrimidin-4-yl}methoxy)-20,22-dimethyl-16-[(4-methylpiperazin-1-yl)methyl]-7,8,15,16-tetrahydro-18,21-etheno-13,9-(metheno)-6,14,17-trioxa-2-thia-3,5-diazacyclononadeca[1,2,3-cd]indene-7-carboxylic Acid]: the half-maximal inhibitory concentration (IC50) in assay [2] came out at 0.0026 µM.
In the case of `Cc1c(Cl)c2c(Cl)c(C)c1-c1c(-c3ccc(F)cc3)sc3ncnc(c13)O[C@@H](C(=O)O)Cc1cc(ccc1OCc1ccnc([C@H]3CC[C@H](OCCOCC4COCCO4)CC3)n1)OC[C@@H](CN1CCN(C)CC1)O2` (stereo partly drawn) [Example 92, (7R,16R)-19,23-dichloro-10-({2-[(1r,4r)-4-{2-[(1,4-dioxan-2-yl)methoxy]ethoxy}cyclohexyl]pyrimidin-4-yl}methoxy)-1-(4-fluorophenyl)-20,22-dimethyl-16-[(4-methylpiperazin-1-yl)methyl]-7,8,15,16-tetrahydro-18,21-etheno-13,9-(metheno)-6,14,17-trioxa-2-thia-3,5-diazacyclononadeca[1,2,3-cd]indene-7-carboxylic Acid], the IC50 came to 0.000223 µM in assay [1] and 0.00031 µM in assay [2].
`Cc1c(Cl)c2c(Cl)c(C)c1-c1c(-c3ccc(F)cc3)sc3ncnc(c13)O[C@@H](C(=O)O)Cc1cc(ccc1OCc1ccnc(-c3ccc(OCCN4CCOCC4)cc3)n1)OC[C@@H](CN1CCN(C)CC1)O2` [Example 168, (7R,16R)-19,23-dichloro-1-(4-fluorophenyl)-20,22-dimethyl-16-[(4-methylpiperazin-1-yl)methyl]-10-[(2-{4-[2-(morpholin-4-yl)ethoxy]phenyl}pyrimidin-4-yl)methoxy]-7,8,15,16-tetrahydro-18,21-etheno-13,9-(metheno)-6,14,17-trioxa-2-thia-3,5-diazacyclononadeca[1,2,3-cd]indene-7-carboxylic Acid]: at GST-MCL-1, the Ki is 0.671 nM and the pKi is 10.60.
Take `Cc1c(Cl)c2c(Cl)c(C)c1-c1c(-c3ccc(F)cc3)sc3ncnc(c13)O[C@@H](C(=O)O)Cc1cc(ccc1OCc1ccnc(-c3ccc(OC[C@@H]4CN(C)CCCO4)cc3)n1)OC[C@@H](CN1CCN(C)CC1)O2` [Example 173, (7R,16R)-19,23-dichloro-1-(4-fluorophenyl)-20,22-dimethyl-10-{[2-(4-{[(2S)-4-methyl-1,4-oxazepan-2-yl]methoxy}phenyl)pyrimidin-4-yl]methoxy}-16-[(4-methylpiperazin-1-yl)methyl]-7,8,15,16-tetrahydro-18,21-etheno-13,9-(metheno)-6,14,17-trioxa-2-thia-3,5-diazacyclononadeca[1,2,3-cd]indene-7-carboxylic Acid]: the IC50 in assay [1] came to 0.00114 µM; in assay [2], 0.00452 µM.
Consider `Cc1c(Cl)c2c(Cl)c(C)c1-c1c(-c3ccc(F)cc3)sc3ncnc(c13)O[C@@H](C(=O)O)Cc1cc(ccc1OCc1ccnc(-c3ccc(O[C@H]4CO[C@H]5[C@@H]4OC[C@@H]5O)cc3)n1)OC[C@@H](CN1CCN(C)CC1)O2` [Example 174, (7R,16R)-19,23-dichloro-1-(4-fluorophenyl)-10-{[2-(4-{[(3S,3aR,6S,6aR)-6-hydroxyhexahydrofuro[3,2-b]furan-3-yl]oxy}phenyl)pyrimidin-4-yl]methoxy}-20,22-dimethyl-16-[(4-methylpiperazin-1-yl)methyl]-7,8,15,16-tetrahydro-18,21-etheno-13,9-(metheno)-6,14,17-trioxa-2-thia-3,5-diazacyclononadeca[1,2,3-cd]indene-7-carboxylic Acid], for which, at GST-MCL-1, the Ki worked out at 0.2 nM and the pKi was 11.10.
For the compound `Cc1c(Cl)c2c(Cl)c(C)c1-c1c(-c3ccc(F)cc3)sc3ncnc(c13)O[C@@H](C(=O)O)Cc1cc(ccc1OCc1ccnc(OC[C@@H]3CN(C)CCCO3)n1)OC[C@@H](CN1CCN(C)CC1)O2` [Example 177, (7R,16R)-19,23-dichloro-1-(4-fluorophenyl)-20,22-dimethyl-10-[(2-{[(2S)-4-methyl-1,4-oxazepan-2-yl]methoxy}pyrimidin-4-yl)methoxy]-16-[(4-methylpiperazin-1-yl)methyl]-7,8,15,16-tetrahydro-18,21-etheno-13,9-(metheno)-6,14,17-trioxa-2-thia-3,5-diazacyclononadeca[1,2,3-cd]indene-7-carboxylic Acid], the figures for the IC50 in assay [1] and in assay [2] were 0.00422 µM and 0.00929 µM, respectively.
Taken in the same sequence, the figures for `COCCOCCOc1ccc(-c2ccccc2OC)nc1COc1ccc2cc1C[C@H](C(=O)O)Oc1ncnc3sc(-c4ccc(F)cc4)c(c13)-c1c(C)c(Cl)c(c(Cl)c1C)O[C@H](CN1CCN(C)CC1)CO2` [Example 178, (7R,16R)-19,23-dichloro-1-(4-fluorophenyl)-10-({3-[2-(2-methoxyethoxy)ethoxy]-6-(2-methoxyphenyl)pyridin-2-yl}methoxy)-20,22-dimethyl-16-[(4-methylpiperazin-1-yl)methyl]-7,8,15,16-tetrahydro-18,21-etheno-9,13-(metheno)-6,14,17-trioxa-2-thia-3,5-diazacyclononadeca[1,2,3-cd]indene-7-carboxylic Acid] were 0.152 µM and 0.37 µM.
